ChEMBL document CHEMBL1201862, “PubChem BioAssay data set” (2004)
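Assay format: 96-well plates, 48-hour exposure. GI50: concentration for 50% inhibition of growth.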 Calls of active or inactive are those of the source. No stated cut-off is given here; in the data, active = GI50 up to about 1.1 µM and inactive = higher.

How the values were obtained:
Assay in all cases: growth of human tumour cells (NCI), 48 h
[1] = system: SN12C
[2] = system: CAKI-1
[3] = system: KM12
[4] = system: HT-29
[5] = system: SNB-19
[6] = system: OVCAR-8
[7] = system: CCRF-CEM
[8] = system: EKVX
[9] = system: Malme-3M
[10] = system: SNB-75
[11] = system: NCI-H226
[12] = system: HOP-62
[13] = system: A549
[14] = system: HCC 2998
[15] = system: K562
[16] = system: MDA-N
[17] = system: HCT-116
[18] = system: 786-0
[19] = system: SF-295
[20] = system: MDA-MB-231

Row | SMILES | GI50 [1] | GI50 [2] | GI50 [3] | GI50 [4] | GI50 [5] | GI50 [6] | GI50 [7] | GI50 [8] | GI50 [9] | GI50 [10] | GI50 [11] | GI50 [12] | GI50 [13] | GI50 [14] | GI50 [15] | GI50 [16] | GI50 [17] | GI50 [18] | GI50 [19] | GI50 [20]
1 | CC(=O)Nc1ccc2c3c(cc(O)c2c1)N(C(=O)CCCCCCC(=O)Nc1ccc2c4c(cc(O)c2c1)N(C(=O)OC(C)(C)C)CC4CCl)CC3CCl (stereo not given) | 130 nM (active) | 1020 nM (active) | 169 nM (active) | 155 nM (active) | 46 nM (active) | 97.3 nM (active) | < 10 nM (active) | 304 nM (active) | 83 nM (active) | 77.6 nM (active) | 144 nM (active) | 91 nM (active) | 195 nM (active) | 50.2 nM (active) | 117 nM (active) | 134 nM (active) | 40.8 nM (active) | 75.7 nM (active) | 77.6 nM (active) | 319 nM (active)
2 | COc1cc(C2c3[nH]c4ccccc4c3[C@@H](Nc3ccc(C#N)cc3)[C@H]3COC(=O)N23)cc(OC)c1O (stereo not given in full) | 186 nM (active) | 213 nM (active) | 243 nM (active) | 300 nM (active) | 235 nM (active) | 227 nM (active) | 54 nM (active) | 851 nM (active) | 279 nM (active) | 227 nM (active) | 190 nM (active) | 192 nM (active) | 113 nM (active) | 239 nM (active) | 181 nM (active) | 376 nM (active) | 233 nM (active) | 90.8 nM (active) | 164 nM (active) | 372 nM (active)
3 | CC(C)OP(=O)(OC(C)C)C(C(C)C)N(C)/C(N)=N\C1=NC(C(F)(F)F)(C(F)(F)F)N=C(C(C(F)(F)F)C(F)(F)F)O1 (stereo not given) | 3150 nM (inactive) | 3120 nM (inactive) | 3400 nM (inactive) | 2460 nM (inactive) | 11900 nM (inactive) | 1990 nM (inactive) | 664 nM (active) | 3660 nM (inactive) | 4510 nM (inactive) | 2420 nM (inactive) | 2110 nM (inactive) | 3960 nM (inactive) | 2880 nM (inactive) | 4910 nM (inactive) | 1760 nM (inactive) | 2140 nM (inactive) | 2310 nM (inactive) | 3700 nM (inactive) | 3660 nM (inactive) | 1990 nM (inactive)
4 | COc1cccc2c1C(=O)c1c(O)c3c(c(O)c1C2=O)C[C@@](O)(C(=O)CO)C[C@@H]3OC1CC(N2CCOCC2C#N)C(O)C(C)O1 (stereo not given in full) | 0.0214 nM (active) | 0.0353 nM (active) | 0.0255 nM (active) | 0.0207 nM (active) | 0.0352 nM (active) | 0.0518 nM (active) | 0.0194 nM (active) | 0.227 nM (active) | 0.2 nM (active) | 0.0137 nM (active) | 0.0146 nM (active) | 0.0232 nM (active) | 0.0426 nM (active) | 0.0537 nM (active) | 0.0252 nM (active) | 0.0908 nM (active) | 0.0271 nM (active) | 1 nM (active) | 0.0182 nM (active) | 0.11 nM (active)
5 | CN(CCNC(=O)c1n[nH]c2c1ccc1ccccc12)CCNC(=O)c1n[nH]c2c1ccc1ccccc12 | 1800 nM (inactive) | 8730 nM (inactive) | 2140 nM (inactive) | 2010 nM (inactive) | 1890 nM (inactive) | 2050 nM (inactive) | 2200 nM (inactive) | 1630 nM (inactive) | 1900 nM (inactive) | 1850 nM (inactive) | 4320 nM (inactive) | 2110 nM (inactive) | 2070 nM (inactive) | 1910 nM (inactive) | 2260 nM (inactive) | 1860 nM (inactive) | 2130 nM (inactive) | 1750 nM (inactive) | 1810 nM (inactive) | 1940 nM (inactive)
6 | Cc1c2cc[n+]([O-])cc2c(C)c2c1[nH]c1ccccc12 | 4930 nM (inactive) | 7050 nM (inactive) | 9750 nM (inactive) | 3570 nM (inactive) | 7130 nM (inactive) | 2860 nM (inactive) | 2880 nM (inactive) | 11400 nM (inactive) | 8950 nM (inactive) | 5770 nM (inactive) | 5370 nM (inactive) | 5740 nM (inactive) | 4280 nM (inactive) | 12500 nM (inactive) | 4840 nM (inactive) | 4150 nM (inactive) | 1390 nM (inactive) | 2740 nM (inactive) | 4580 nM (inactive) | 4280 nM (inactive)
